Converted amounts (≈) assume the structure as drawn.
What was measured:
Experiment in all cases: Antibacterial assay, microtitration MIC (Test A)
Type in all cases: cell-based
S pyogenes C203 = settings: Gram Positive Bacteria, strain C203; for MIC: read-out: Minimum Inhibitory Concentrations S pyogenes C203
Procedure: (§1) The compounds of the present invention were tested against an assortment of Gram-negative and Gram-positive organisms using standard microtitration techniques (Cohen et. al., Antimicrob., 1985;28:766; Heifetz, et. al., Antimicrob., 1974;6:124). The results of the evaluation are shown in Tables 1A and B, wherein “-” means no data.

S. pneumo SV-1 = settings: Gram Positive Bacteria, strain SV-1; for MIC: read-out: Minimum Inhibitory Concentrations S. pneumo SV-1
Procedure: as §1

E. faecalis MGH-2 = settings: strain MGH-2; for MIC: Enterococcus faecalis, MGH2, Gram Positive Bacteria, read-out: Minimum Inhibitory Concentrations E. faecalis MGH-2
Procedure: as §1

H. influenzae HI-3542 = settings: strain HI-3542; for MIC: Haemophilus influenzae, HI3542, Gram Negative Bacteria, read-out: Minimum Inhibitory Concentrations H. influenzae HI-3542
Procedure: as §1

E. coli EC-2549 = settings: strain EC-2549; for MIC: Escherichia coli, EC2549, Gram Negative Bacteria, read-out: Minimum Inhibitory Concentrations E. coli EC-2549
Procedure: as §1

M. catarrhalis BC-3531 = settings: strain BC-3531; for MIC: Moraxella catarrhalis, BC3531, Gram Negative Bacteria, read-out: Minimum Inhibitory Concentrations M. catarrhalis BC-3531; for Minimum Inhibitory Concentrations M. catarrhalis BC-3531: Gram Negative Bacteria
Procedure: as §1

Row | SMILES | MIC (H. influenzae HI-3542) | MIC (E. coli EC-2549) | MIC (M. catarrhalis BC-3531) | other results
1 | O=C(O)c1cn(C2CC2)c2nc(N3CCC(C(O)C(F)F)C3)c(F)cc2c1=O (centres unmarked) [drawing 352] | – | – | – | MIC (S pyogenes C203): 0.25 µg/mL (≈ 0.629 µM); MIC (S. pneumo SV-1): 0.25 µg/mL (≈ 0.629 µM); MIC (E. faecalis MGH-2): 0.125 µg/mL (≈ 0.315 µM)
2 | COc1c(N2C[C@]3(CO)CCC[C@]3(CO)C2)c(F)cc2c(=O)c(C(=O)O)cn(C3CC3)c12 [drawing 451] | 0.125 µg/mL (≈ 0.28 µM) | 2 µg/mL (≈ 4.48 µM) | 0.25 µg/mL (≈ 0.56 µM) | –
3 | Cc1c(N2CCC(C(C)O)C2)c(F)cc2c(=O)c(C(=O)O)cn(C3CC3)c12 (centres unmarked) [drawing 344] | – | – | – | MIC (S pyogenes C203): 0.06 µg/mL (≈ 0.16 µM); MIC (S. pneumo SV-1): 0.03 µg/mL (≈ 0.0801 µM); MIC (E. faecalis MGH-2): 0.06 µg/mL (≈ 0.16 µM)
4 | Cc1c(N2CCC(C(O)CO)C2)c(F)cc2c(=O)c(C(=O)O)cn(C3CC3)c12 (centres unmarked) [drawing 323] | 0.5 µg/mL (≈ 1.28 µM) | 4 µg/mL (≈ 10.2 µM) | 1 µg/mL (≈ 2.56 µM) | –
5 | COCC(O)C1CCN(c2c(F)cc3c(=O)c(C(=O)O)cn(C4CC4)c3c2C)C1 (centres unmarked) [drawing 337] | 0.125 µg/mL (≈ 0.309 µM) | 1 µg/mL (≈ 2.47 µM) | 0.125 µg/mL (≈ 0.309 µM) | –
6 | COc1c(N2C[C@@H](CCO)[C@@H](CCO)C2)c(F)cc2c(=O)c(C(=O)O)cn(C3CC3)c12 [drawing 396] | 0.06 µg/mL (≈ 0.138 µM) | 1 µg/mL (≈ 2.3 µM) | 0.125 µg/mL (≈ 0.288 µM) | –
7 | COc1c(N2CCC(C(O)C3(O)CC3)C2)c(F)cc2c(=O)c(C(=O)O)cn(C3CC3)c12 (centres unmarked) [drawing 328] | 0.015 µg/mL (≈ 0.0347 µM) | 0.5 µg/mL (≈ 1.16 µM) | 0.125 µg/mL (≈ 0.289 µM) | –
8 | O=C(O)c1cn(C2CC2)c2c(OC(F)F)c(N3C[C@@H](CCO)[C@@H](CCO)C3)c(F)cc2c1=O [drawing 397] | 0.06 µg/mL (≈ 0.128 µM) | 1 µg/mL (≈ 2.13 µM) | 0.125 µg/mL (≈ 0.266 µM) | –
9 | Cc1c(N2CCC(C(C)O)C2)c(F)cc2c(=O)c(C(=O)O)cn(C3CC3)c12 (centres unmarked) [drawing 315] | 0.002 µg/mL (≈ 0.00534 µM) | 0.06 µg/mL (≈ 0.16 µM) | – | Minimum Inhibitory Concentrations M. catarrhalis BC-3531 (M. catarrhalis BC-3531): 0.002 µg/mL
10 | CC(=O)OC[C@@H]1CN(c2c(F)cc3c(=O)c(C(=O)O)cn(C4CC4)c3c2C)C[C@@H]1COC(C)=O [drawing 392] | 0.125 µg/mL (≈ 0.263 µM) | 0.5 µg/mL (≈ 1.05 µM) | 0.06 µg/mL (≈ 0.126 µM) | –
11 | Cc1c(N2CCC(C(O)C(F)(F)F)C2)c(F)cc2c(=O)c(C(=O)O)cn(C3CC3)c12 (centres unmarked) [drawing 364] | – | – | – | Minimum Inhibitory Concentrations S pyogenes C203 (S pyogenes C203): 0.5 µg/mL; Minimum Inhibitory Concentrations S. pneumo SV-1 (S. pneumo SV-1): 0.125 µg/mL; Minimum Inhibitory Concentrations E. faecalis MGH-2 (E. faecalis MGH-2; Gram Positive Bacteria): 0.06 µg/mL
12 | COc1c(N2CCC(C(O)C(F)(F)F)C2)c(F)cc2c(=O)c(C(=O)O)cn(C3CC3)c12 (centres unmarked) [drawing 362] | – | – | – | MIC (S pyogenes C203): 0.125 µg/mL (≈ 0.281 µM); MIC (S. pneumo SV-1): 0.06 µg/mL (≈ 0.135 µM); MIC (E. faecalis MGH-2): 0.06 µg/mL (≈ 0.135 µM)
13 | COc1c(N2CCC(C(O)C3(CO)CC3)C2)c(F)cc2c(=O)c(C(=O)O)cn(C3CC3)c12 (centres unmarked) [drawing 320] | 0.03 µg/mL (≈ 0.0672 µM) | 0.25 µg/mL (≈ 0.56 µM) | – | –
14 | COc1c(N2CCC(C(O)CO)C2)c(F)cc2c(=O)c(C(=O)O)cn(C3CC3)c12 (centres unmarked) [drawing 322] | 0.015 µg/mL (≈ 0.0369 µM) | 0.03 µg/mL (≈ 0.0738 µM) | 0.04 µg/mL (≈ 0.0984 µM) | –
15 | Cc1c(N2CCC(CCO)C2)c(F)cc2c(=O)c(C(=O)O)cn(C3CC3)c12 (centres unmarked) [drawing 308] | 0.03 µg/mL (≈ 0.0801 µM) | 0.06 µg/mL (≈ 0.16 µM) | 0.015 µg/mL (≈ 0.0401 µM) | –
16 | COc1c(N2CCC(C(C)O)C2)c(F)cc2c(=O)c(C(=O)O)cn(C3CC3)c12 (centres unmarked) [drawing 316] | 0.008 µg/mL (≈ 0.0205 µM) | 0.125 µg/mL (≈ 0.32 µM) | 0.015 µg/mL (≈ 0.0384 µM) | –
17 | COc1c(N2CCC(C(O)c3ccc(S(C)(=O)=O)o3)C2)c(F)cc2c(=O)c(C(=O)O)cn(C3CC3)c12 (centres unmarked) [drawing 348] | – | – | – | MIC (S pyogenes C203): 0.5 µg/mL (≈ 0.961 µM); MIC (S. pneumo SV-1): 0.5 µg/mL (≈ 0.961 µM); MIC (E. faecalis MGH-2): 0.5 µg/mL (≈ 0.961 µM)
18 | Cc1c(N2CCC(C(C)O)C2)c(F)cc2c(=O)c(C(=O)O)cn(C3CC3)c12 (centres unmarked) [drawing 317] | – | – | – | Minimum Inhibitory Concentrations H. influenzae HI-3542 (H. influenzae HI-3542; Gram Negative Bacteria): 0.004 µg/mL; Minimum Inhibitory Concentrations E. coli EC-2549 (E. coli EC-2549; Gram Negative Bacteria): 0.06 µg/mL; Minimum Inhibitory Concentrations M. catarrhalis BC-3531 (M. catarrhalis BC-3531): 0.008 µg/mL
19 | Cc1c(N2CCC(C(F)(F)CO)C2)c(F)cc2c(=O)c(C(=O)O)cn(C3CC3)c12 (centres unmarked) [drawing 335] | 0.015 µg/mL (≈ 0.0366 µM) | 0.125 µg/mL (≈ 0.305 µM) | 0.03 µg/mL (≈ 0.0731 µM) | –
20 | COc1c(N2CCC(C3(O)CC3)C2)c(F)cc2c(=O)c(C(=O)O)cn(C3CC3)c12 (centres unmarked) [drawing 327] | 0.03 µg/mL (≈ 0.0745 µM) | 0.25 µg/mL (≈ 0.621 µM) | 0.03 µg/mL (≈ 0.0745 µM) | –
21 | COc1c(N2C[C@@H](CO)[C@@H](CO)C2)c(F)c(N)c2c(=O)c(C(=O)O)cn(C3CC3)c12 [drawing 381] | 0.03 µg/mL (≈ 0.0712 µM) | 0.25 µg/mL (≈ 0.593 µM) | 0.125 µg/mL (≈ 0.297 µM) | –
22 | O=C(O)c1cn(C2CC2)c2c(Cl)c(N3CCC(C(O)C(F)F)C3)c(F)cc2c1=O (centres unmarked) [drawing 350] | – | – | – | MIC (S pyogenes C203): 0.25 µg/mL (≈ 0.58 µM); MIC (S. pneumo SV-1): 0.125 µg/mL (≈ 0.29 µM); MIC (E. faecalis MGH-2): 0.125 µg/mL (≈ 0.29 µM)
23 | Cc1c(N2C[C@@H](COC(=O)C(C)C)[C@@H](COC(=O)C(C)C)C2)c(F)cc2c(=O)c(C(=O)O)cn(C3CC3)c12 [drawing 394] | 2 µg/mL (≈ 3.77 µM) | 8 µg/mL (≈ 15.1 µM) | 2 µg/mL (≈ 3.77 µM) | –
